Assay results published in patent EP2646421B1, “7-NITRO-5-PHENYL-1-(PYRROLIDIN-1-YLMETHYL)-1H-BENZO[E][1,4]DIAZEPIN-2(3H)-ONE AND OTHER BENZODIAZEPINE DERIVATIVES” (Pignataro, Giuseppe, priority 2010, dated 2012).

What was measured:
NCX1Δf = molecular target: T1, NCX1Δf (Canis lupus familiaris, UniProt P23685, DEL273-712); experiment: Na+-dependent Ca2+ influx assay on BHK cells with f-loop deletion mutant; format: cell-based; conditions: 10 nM; compared to wild-type NCX3 exposed to the same treatment
T1 construct: expressed in transfected cells
Protocol: In order to establish the molecular determinants of the effect of neurounina-1 on NCX1, we firstly performed a Na^+-dependent Ca^2+ influx assay on BHK cells stably transfected with a mutated NCX1 exchanger (NCX1Δf), in which a large portion of the f loop, region 241-680, was removed by deletion mutagenesis.
All experiments aimed to identify the binding site of neurounina-1 were performed on BHK cells stably transfected with a single NCX chimera or mutant.
The activity of the Na^+/Ca^2+ exchanger was measured by means of ^45Ca^2+ radiotracer variations in the cytoplasm of cells exposed to a protocol stimulating the forward or the reverse mode of the antiporter. The BHK cells expressing each mutated or non-mutated NCX isoform were cultured in 12-well dishes and incubated in 145 mM NaCl for 10 minutes and then in a medium containing only 145 mM N-Methyl D-glucamine (NMDG) and 10 µM of ^45Ca^2+. This rapid substitution of the medium from a high level of Na^+ to another one without Na^+ allow the ^45Ca^2+ influx (reverse mode). Before the medium substitution cells was incubated with 1 mM ouabain, a Na^+/K^+ pump inhibitor, and 10 µM monensin, a ionophore for extracellular Na^+. […] The medium was removed and cells were subsequently lysed with 0.1 N NaOH and aliquots were taken to determine radioactivity and protein content.

[1] = tested on: ischemic volume after tMCAO; experiment: Transient middle cerebral artery occlusion (tMCAO) cerebral ischemia model; format: in vivo, mice
From the text: For experimental stroke male wild-type C57BL of 2 months have been used. All mice were anesthetized with a gas containing 70 % N2O, 28% O2 e 2% sevoflurane).
Usually, after anesthesia an incision on the ventral neck is made and, under an operating stereo-microscope and with the help of microsurgery twizzers, the muscle is diverted until the common carotid artery (CCA). Then, through smoothly diversion, the CCA is isolated from the vague nerve and the jugulars vein. Analogously, the external carotid artery (ECA) and the internal carotid artery (ICA) are isolated as well.After the isolation of these vessels and the positioning of vascular microclips, a nylon filament (5-0, Ethilon, 11 mm length) is inserted into the internal carotid artery (ICA), at the level of bifurcation with the common carotid artery. The filament is pushed in cranial direction until is reached the bifurcation of the middle cerebral artery (MCA), whose flux is interrupted. After the insertion of the filament the wound is closed with a temporary suture and the mouse is let to awake. After 60 minutes the animal is re-anesthesized and the ischemia is interrupted through the filament rimotion from the vessel. The reduction in cerebral blood flow has been evaluated by means of a cerebral laser-Doppler system (Periflux, Sweden with software Perimed 1.30) that uses a probe fixed on the skull. The body temperature has been maintained constant by means of a homoeothermic blanket connected to a rectal probe. Few minutes after the end of the surgical procedure the mouse awakes and, on the nasis of the pain degree noticed, is decided for the administration of analgesic drugs. Neurounina-1 administration has been done intraperitoneally at different dosages, immediately before, 3 hours or 5 hours the ischemia onset. 24 hours after the surgical procedure, the animal is killed through cervical dislocation and the brain is removed from the skull and analyzed for the determination of the ischemic damage extension. In particular, by means of a vibratome, serial coronal brain sections of […] are obtained. These brain sections are treated with 2,3,5-triphenyl tetrazolium chloride (TTC), an organic compound that has the peculiarity of being oxidized and precipitated as formazan salt only from vital tissue. By contrast, the ischemic tissue, being not able to generate this reaction, remains white. […] The software used (Image Pro-plus 4.1) allows, then, to obtain the brain infarct volume from the value of the infarct areas obtained in close brain slices.Data obtained in this manner are then elaborated to obtain a percentage evaluation of the ischemic damage induced compared to the brain hemisphere […] to the ischemic lesion.

T1 sequence (P23685 with tags, fused parts or gaps DEL273-712): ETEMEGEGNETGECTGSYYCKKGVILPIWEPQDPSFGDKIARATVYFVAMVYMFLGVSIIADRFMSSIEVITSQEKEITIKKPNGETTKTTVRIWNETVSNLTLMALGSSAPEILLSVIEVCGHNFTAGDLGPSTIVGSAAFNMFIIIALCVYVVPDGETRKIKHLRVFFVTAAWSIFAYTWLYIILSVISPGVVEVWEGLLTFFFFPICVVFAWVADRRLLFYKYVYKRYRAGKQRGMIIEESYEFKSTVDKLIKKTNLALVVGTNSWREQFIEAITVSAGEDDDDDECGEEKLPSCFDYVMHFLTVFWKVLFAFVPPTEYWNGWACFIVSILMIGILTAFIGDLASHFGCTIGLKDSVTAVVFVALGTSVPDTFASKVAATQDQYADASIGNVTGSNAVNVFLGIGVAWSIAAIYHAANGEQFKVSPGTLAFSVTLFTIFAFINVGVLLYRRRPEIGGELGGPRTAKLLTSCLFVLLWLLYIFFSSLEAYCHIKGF

Q: How did the “activity of the mutant NCX1Δf” value (NCX1Δf) turn out when `O=C1CN=C(c2ccccc2)c2cc([N+](=O)[O-])ccc2N1CN1CCCC1` [neurounina-1, 7-nitro-5-phenyl-1-(pyrrolidin-1-ylmethyl)-1H-benzo[e][1,4]diazepin-2(3H)-one] was run?
A: significantly increased

Q: What about the ischemic damage ([1]; administered just before tMCAO induction, 3 ng/kg, intraperitoneal) of the same compound?
A: significantly reduced ischemic damage

Q: What about the “minimal dose with neuroprotective effect” value ([1]; five hours from tMCAO, intraperitoneal) of the same compound?
A: 0.03 mg/kg

Q: What about the neuroprotective effect ([1]; intraperitoneally 3 hours after tMCAO, dose-range 3 ng/kg to 30 µg/kg) of the same compound?
A: still present

Q: And the ischemic volume ([1]; mice, intraperitoneal administration, tMCAO)?
A: decreased the ischemic volume
